Data on one molecule can be found in patent US7625713B2, “Process for identifying a ligand that binds to the NEP binding site for the SMR1 pentapeptide” (Institut Pasteur, priority 2000, dated 2009).

Where a SMILES comes first, the peptide text is derived from it. Where only a bound is given, the exact number is not on record here.

One data set relates to male rats. In words: Pin pain test. The data set is classed as in vivo, rat. As for the experimental part: The 3-min test session was performed 5 min after intravenous. rat tail vein administration of sialorphin or its vehicle. Naloxone (0.3 mg per kg body weight) was injected subcutaneously 15 min before sialorphin administration. Time in centre field sector (FIG. 6-C) (central square of the open-field without pin) and activity (FIGS. 6-A and 6-B) in peripheral squares (overlayed with pins) during the 3-min test session. Each value represents the mean±sem of 8 animals per group. […] Control group corresponded to pain response in vehicle-treated rats. 50 μg/kg sialorphin, 100 μg/kg sialorphin, 100 μg/kg sialorphin plus naloxone 0.3 mg/kg.
To extend the insight into the in vivo possible antinociceptive property of sialorphin through enkephalin-degrading enzyme inhibition, its effects were assessed in rat model of pain, i.e. the pin pain test, (Hebert et al. (1999) Physiology & Behavior 67, 99-105) in which the various behavioural parameters of pain responses were recorded with a 3-min cutoff time.
The in vivo activity of sialorphin was tested on the pin pain assay using male rats (350-400 g, Charles Rivers). The experimental device consists in an open-field (45×45×40 cm) which is divided into nine equal squares (150×150 mm), eight of them are peripheral and one is central. The peripheral squares are overlayed with stainless steel pins (2/cm2, length 8 mm and diameter 0.6 mm). The test consisted in placing the rat in the central square of the open-field and recording its different behaviours (cut-off time, 3 min). Two days before the pain test, the rats were familiarised with the experimental device without pins for 20 min, so as to reduce the stress linked to the spatial neophobia. All statistical analyses were carried out using the Statview 5 statistical package.

The next data set relates to male SPF Wistar/AF rats. In words: Aversive light stimulus avoidance test (ALSAT). It is filed as in vivo, rat. Particulars: 50 μg/kg, I.V.; for Total number of times the two levers were pressed / Number of times AL pressed / Number of times IL pressed: mean ± SEM; for Number of times AL pressed: active lever; for Number of times IL pressed: inactive lever. As for the experimental part: Twenty four male SPF Wistar/AF rats weighing from 300 to 320 g were used. Upon reception, the rats were weighed, marked and distributed, in groups of 3, into F-type polycarbonate cages. The animals were housed in an air-conditioned animal house at a temperature of 22-24° C. Food and drink was available to the rats ad libitum. They were subjected to a 12-hour light/dark cycle (light from 8 pm to 8 am).
After a period of familiarization with the laboratory conditions of one week, the 24 rats were randomly divided into 2 groups (n=12). The rats from the various groups were all handled in the same way and under the same conditions.
The rat is placed in the cage for 20 minutes and the number of times each lever is pressed is counted during the experiment.
This model uses the aversion of the rat to a brightly lit environment. During the familiarization session and the learning session, the rat learns to control the aversive light environment of the test device in the context of operant conditioning: the animal learns to press the active lever in order to obtain periods of darkness.
The learning test is made up over two sessions: • Session 1, familiarization with the experimental device (day 1); • Session 2, learning test (day 2).
The QHNPR (SEQ ID NO: 2) peptide is suspended in a proportion of 500 μg per 5 ml of 0.01 N acetic acid, and then diluted with PBS in order to be administered at the dose of 50 μg/kg, via the i.v. route, in the dorsal caudal vein of the rat, 1 minute before the test.
A two-sided probability unpaired t-test was used to compare the lever-pressing activity of the two groups of rats.
The results are expressed as mean±standard error of the mean (SEM).

In the next data set the target is T1, NEP (Rattus norvegicus, UniProt P07861).
T1 construct: incubations of membrane and fresh tissue slice preparations from nervous tissues; from tissue; host or cells: dorsal spinal cord of male Wistar rats (fresh slices or 100 000 x g membrane fraction)
T1 sequence (P07861 1-750): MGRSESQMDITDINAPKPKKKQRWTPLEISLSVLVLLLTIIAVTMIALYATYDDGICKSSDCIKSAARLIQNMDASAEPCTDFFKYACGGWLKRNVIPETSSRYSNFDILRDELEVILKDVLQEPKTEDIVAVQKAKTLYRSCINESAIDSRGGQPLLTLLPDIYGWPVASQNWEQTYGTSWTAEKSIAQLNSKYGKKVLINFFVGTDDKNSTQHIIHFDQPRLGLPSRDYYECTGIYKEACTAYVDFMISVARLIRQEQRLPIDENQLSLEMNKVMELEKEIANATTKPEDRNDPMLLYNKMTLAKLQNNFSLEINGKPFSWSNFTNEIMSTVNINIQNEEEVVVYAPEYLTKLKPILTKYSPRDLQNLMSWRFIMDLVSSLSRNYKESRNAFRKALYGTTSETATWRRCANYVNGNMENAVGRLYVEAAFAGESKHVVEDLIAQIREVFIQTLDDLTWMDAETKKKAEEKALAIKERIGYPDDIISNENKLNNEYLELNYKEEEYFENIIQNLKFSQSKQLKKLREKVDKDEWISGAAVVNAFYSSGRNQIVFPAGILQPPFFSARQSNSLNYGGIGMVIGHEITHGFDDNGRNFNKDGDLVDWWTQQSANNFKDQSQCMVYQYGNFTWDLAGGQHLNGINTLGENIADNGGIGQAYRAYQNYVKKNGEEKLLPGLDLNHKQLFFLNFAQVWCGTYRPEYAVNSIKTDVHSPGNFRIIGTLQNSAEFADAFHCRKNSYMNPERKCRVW
Description: 3H-Substance P hydrolysis by rat spinal cord slices. It is filed as biochemical. Conditions: 10 μM combined with GEMSA (10 μM) and DPPIV inhibitor (10 μM), 25° C., read-out: inhibition of Substance P degradation. The protocol:
For the experiments of analysis of the NEP peptidase activity, an ex vivo model using incubations of membrane and fresh tissue slice preparations from nervous tissues that are known to be appropriate for exploring NEP peptidase activity: i.e. the dorsal zone of rat spinal cord, was first developed. […] (NEN, 12.5-25 nM) were used.
The objective was to measure the NEP-specific endoproteolysis of these substrates.

The nature of a further data set: Chelating-FPLC analyses. It is filed as physicochemical. From the text:
Otherwise, tissue-uptake of the sialorphin peptide involves a complex molecular species, including a cation mineral element, as the peptide was only recovered in the presence of a strong divalent metal ion chelating agent (Rougeot, C. et al. (1997), American Journal of Physiology 273, […]-20). […] The zinc ion, an essential component of the NEP catalytic site, is a common target of synthetic potent NEP inhibitors described elsewhere.

[1] abbreviates: 100 μg per kg intravenous, 3-min trial, n=8, mean±sem.

As to `N=C(N)NCCC[C@H](NC(=O)[C@@H]1CCCN1C(=O)[C@H](CC(N)=O)NC(=O)[C@H](Cc1c[nH]cn1)NC(=O)[C@@H](N)CCC(N)=O)C(=O)O` [sialorphin, Gln-His-Asn-Pro-Arg] (H-QHNPR-OH; N-terminus and C-terminus assumed), the “frequency of crossings peripheral squares” value with male rats (100 μg per kg intravenous, 3-min trial 5 min after administration, n=8, mean±sem) is 11.13±1.43. Besides, in the data set with male rats (setting [1]), the “number of audible vocalisation responses” value is listed as 0.25±0.16, the “number of escape responses” value came to 0.13±0.13 and the “rearings on peripheral squares” value came out at 3.88±0.83. Moreover, in the data set on male rats (100 μg/kg given intravenously), the analgesia was 74-97%. The “time in the central area of the open-field” value with male rats (sialorphin intravenous alone, second test trial, 3-min test) was 57.75 ± 21.30 s. Moreover, the “Total number of times the two levers were pressed” value in the data set with male SPF Wistar/AF rats (Session 1, 1 minute before the test) amounted to 10.08 ± 1.98. Besides, in the data set with male SPF Wistar/AF rats (Session 1), the “Number of times AL pressed” value turned out to be 4.83 ± 1.02 and the “Number of times IL pressed” value is given as 5.25 ± 1.14. For the same molecule, in the data set on male SPF Wistar/AF rats (Session 2), the “Number of times AL pressed” value was 2.67 ± 0.47, the “Number of times IL pressed” value came out at 2.58 ± 0.94 and the “Total number of times the two levers were pressed” value was found to be 5.25 ± 5.09. The “Distinction between the levers” value with male SPF Wistar/AF rats (both test sessions) is “no distinction between the two levers”. Besides, the inhibition at 10 µM on NEP is more than 90%. Also, the zinc-chelating property result in “Chelating-FPLC analyses” was “selective and strong zinc-chelating group”.

By inhibition is commonly meant the drop in the measured response relative to a control, in per cent.
